We go through 35 compounds from USRE36831E, “Iron-pyridone complexes for anemia” (priority 1983, dated 2000).

Test system in one data set: not given
Assay: not given
Conditions: n-octanol/tris buffer, 100 µM, pH 7.4.
Take “3-hydroxy-5-hydroxymethyl-1-methylpyrid-4-one”: the “Partition coefficient KOUT, free compound” value was 0.03.

Another data set concerns apotransferrin. Nature of the data set: Ability of iron complexes to donate iron to apotransferrin. In kind it is biochemical. Conditions: apotransferrin 10^-4 M, complex 10^-4 M, tris 50 mM pH 7.4, 37° C., 10 minutes. The protocol:
Apotransferrin (10^-4 M) and the iron complex of 1-ethyl-3-hydroxy-6-hydroxymethylpyrid-4-one (10^-4 M; prepared as described in Example 1) were incubated together in tris hydrochloride (50 mM, buffered to pH 7.4) at 37° C. for 10 minutes when a 1 ml aliquot was removed from the medium and added to a PD10 column. 0.5 ml fractions were collected directly into scintillation vials for counting. […] A similar value was obtained with the complex of 3-hydroxy-1-(2'-hydroxyethyl)-2-methylpyrid-4-one but with the complex of 1-acetyl-3-hydroxypyrid-2-one over 80% of the iron was removed within 10 minutes.
For the compound `CC(=O)n1cccc([O-])c1=O.CC(=O)n1cccc([O-])c1=O.CC(=O)n1cccc([O-])c1=O.[Fe+3]` [Fe^III complex of 1-acetyl-3-hydroxypyrid-2-one], the “iron removed from the iron complex” value was “over 80%”.
In the case of `CCn1cc([O-])c(=O)cc1CO.CCn1cc([O-])c(=O)cc1CO.CCn1cc([O-])c(=O)cc1CO.[Fe+3]` [Fe^III complex of 1-ethyl-3-hydroxy-6-hydroxymethylpyrid-4-one], the “iron removed from the iron complex” value is “over 45%”.

The next data set deals with human erythrocytes.
Assay: not given
Conditions: pH 7.4.
Take `Cc1c([O-])c(=O)ccn1CCN.Cc1c([O-])c(=O)ccn1CCN.Cc1c([O-])c(=O)ccn1CCN.[Fe+3]` [Fe^III complex of 1-(2'-aminoethyl)-3-hydroxy-2-methylpyrid-4-one]: the “Amount of complex entering erythrocytes” value is recorded as less than 5 n.mole.
As for `Cc1c([O-])c(=O)ccn1CCC(=O)O.Cc1c([O-])c(=O)ccn1CCC(=O)O.Cc1c([O-])c(=O)ccn1CCC(=O)O.[Fe+3]` [Fe^III complex of 1-(2'-carboxyethyl)-3-hydroxy-2-methylpyrid-4-one], the “Amount of complex entering erythrocytes” value came to 19 n.mole.
Still for that read-out and setting: as for `CCCCNC(=O)Cn1cccc([O-])c1=O.CCCCNC(=O)Cn1cccc([O-])c1=O.CCCCNC(=O)Cn1cccc([O-])c1=O.[Fe+3]` [Fe^III complex of 1-(N-butylcarbamoylmethyl)-3-hydroxypyrid-2-one], the figure is 105 n.mole; as for `CC(=O)n1cccc([O-])c1=O.CC(=O)n1cccc([O-])c1=O.CC(=O)n1cccc([O-])c1=O.[Fe+3]` [Fe^III complex of 1-acetyl-3-hydroxypyrid-2-one], 240 n.mole; as for `O=C(O)Cn1cccc([O-])c1=O.O=C(O)Cn1cccc([O-])c1=O.O=C(O)Cn1cccc([O-])c1=O.[Fe+3]` [Fe^III complex of 1-carboxymethyl-3-hydroxypyrid-2-one], less than 5 n.mole.
On the same count and under the same terms, as for `CCOC(=O)Cn1cccc([O-])c1=O.CCOC(=O)Cn1cccc([O-])c1=O.CCOC(=O)Cn1cccc([O-])c1=O.[Fe+3]` [Fe^III complex of 1-ethoxycarbonylmethyl-3-hydroxypyrid-2-one], the figure is 10 n.mole; as for `CCn1cc([O-])c(=O)cc1CO.CCn1cc([O-])c(=O)cc1CO.CCn1cc([O-])c(=O)cc1CO.[Fe+3]` [Fe^III complex of 1-ethyl-3-hydroxy-6-hydroxymethylpyrid-4-one], 26 n.mole; as for `Cc1c([O-])c(=O)ccn1CCO.Cc1c([O-])c(=O)ccn1CCO.Cc1c([O-])c(=O)ccn1CCO.[Fe+3]` [Fe^III complex of 3-hydroxy-1-(2'-hydroxyethyl)-2-methylpyrid-4-one], less than 5 n.mole.
With `COC(=O)CCn1ccc(=O)c([O-])c1C.COC(=O)CCn1ccc(=O)c([O-])c1C.COC(=O)CCn1ccc(=O)c([O-])c1C.[Fe+3]` [Fe^III complex of 3-hydroxy-1-(2'-methoxycarbonylethyl)-2-methylpyrid-4-one], the “Amount of complex entering erythrocytes” value was 25 n.mole.
The same measure, in the same setting: as for `Cc1c([O-])c(=O)ccn1CCCO.Cc1c([O-])c(=O)ccn1CCCO.Cc1c([O-])c(=O)ccn1CCCO.[Fe+3]` [Fe^III complex of 3-hydroxy-1-(3'-hydroxypropyl)-2-methylpyrid-4-one], the figure is 30 n.mole; as for `Cc1c([O-])c(=O)ccn1CCCCO.Cc1c([O-])c(=O)ccn1CCCCO.Cc1c([O-])c(=O)ccn1CCCCO.[Fe+3]` [Fe^III complex of 3-hydroxy-1-(4'-hydroxybutyl)-2-methylpyrid-4-one], 40 n.mole; as for `Cc1c([O-])c(=O)ccn1CCCCCO.Cc1c([O-])c(=O)ccn1CCCCCO.Cc1c([O-])c(=O)ccn1CCCCCO.[Fe+3]` [Fe^III complex of 3-hydroxy-1-(5'-hydroxypentyl)-2-methylpyrid-4-one], 44 n.mole.
Still for that read-out and setting: as for `CC(C)NC(=O)Cn1cccc([O-])c1=O.CC(C)NC(=O)Cn1cccc([O-])c1=O.CC(C)NC(=O)Cn1cccc([O-])c1=O.[Fe+3]` [Fe^III complex of 3-hydroxy-1-[N-(2'-methylethyl)-carbamoylmethyl]-pyrid-2-one], the figure is 52 n.mole.
The same measure, in the same setting: as for `COC(=O)Cn1cccc([O-])c1=O.COC(=O)Cn1cccc([O-])c1=O.COC(=O)Cn1cccc([O-])c1=O.[Fe+3]` [Fe^III complex of 3-hydroxy-1-methoxycarbonylmethylpyrid-2-one], the figure is 230 n.mole; as for `Cn1cc([O-])c(=O)cc1CO.Cn1cc([O-])c(=O)cc1CO.Cn1cc([O-])c(=O)cc1CO.[Fe+3]` [Fe^III complex of 3-hydroxy-6-hydroxymethyl-1-methylpyrid-4-one], less than 5 n.mole; as for “Fe^III complex of 1-carboxymethyl-3-hydroxy-2-methylpyrid-4-one”, less than 5 n.mole.

A further data set has as its system inverted rat jejunal sac. As to the kind of experiment: In vitro permeation of rat jejunal sac by iron complexes (iron uptake into serosal space). Conditions: relative to ferric chloride as 1; Krebs Ringer buffer, 37° C., up to 1 hour. From the text: Rats (male Sprague Dawley, 60 g) were killed and the jejunum removed, everted and cut into three segments (4 cm length). […] The contents of the sac were counted for ^59 Fe and measured spectrophotometrically.
As to `[Cl][Fe]([Cl])[Cl]` [FeCl3, ferric chloride], the “Relative Iron Uptake” value turned out to be 1.
On the same count and under the same terms, as for `O=C([O-])[C@H](O)[C@@H](O)[C@H](O)[C@H](O)CO.O=C([O-])[C@H](O)[C@@H](O)[C@H](O)[C@H](O)CO.[Fe+2]` [Fe^II gluconate], the figure is 1.6.

Test system in another data set: not listed separately
Nature of the data set: physchem. Conditions: n-octanol/tris buffer, pH 7.4.
Experimental: (§1) The partition coefficient Kpart, being the ratio (concentration of compound in n-octanol)/(concentration of compound in aqueous phase) on partition between n-octanol and aqueous tris hydrochloride (20 mM, pH 7.4; tris represents 2-amino-2-hydroxymethylpropane 1,3-diol), is measured at 20° C. for the 3:1 iron(III) complexes of each of the compounds listed in Table 1 and also for the iron-free compound (at 10^-4 M) by spectrophotometry. The solutions of the complexes are either produced by dissolving the pre-formed complex in the aqueous tris hydrochloride or are prepared in situ in the buffer by the admixture of a 3:1 molar ratio of the pyridone and ferric chloride, the pH thereafter being readjusted to 7.4 if necessary (the same product will be obtained in the buffer solution irrespective of whether the pyridone used is in a salt form or not). Acid washed glassware is used throughout and, following mixing of 5 ml of the 10^-4 M aqueous solution with 5 ml of n-octanol for 1 minute, the aqueous n-octanol mixture is centrifuged at 1,000 g for 30 seconds. The two resulting phases are separated for a concentration determination by spectrophotometry on each. For the free hydroxypyridones, the range 220-340 nm is used for concentration determinations whilst for the iron complexes the range 340-640 nm is used.
For `Cc1c(O)c(=O)ccn1CCN` [1-(2'-aminoethyl)-3-hydroxy-2-methylpyrid-4-one], the logD (usually the decadic logarithm of the distribution of all forms, ionised or not, between an organic phase and buffer at a given pH) at 100 µM was less than -2.7.
On the same count and under the same terms, as for `Cc1c(O)c(=O)ccn1CCC(=O)O` [1-(2'-carboxyethyl)-3-hydroxy-2-methylpyrid-4-one], the figure is -0.347; as for `CC(=O)OCCCCCn1ccc(=O)c(O)c1C` [1-(5'-acetoxypentyl)-3-hydroxy-2-methylpyrid-4-one], -0.347.
Still for that read-out and setting: as for `CC(=O)n1cccc(O)c1=O` [1-acetyl-3-hydroxypyrid-2-one], the figure is -0.26.
Still for that read-out and setting: as for `Cc1c(O)c(=O)ccn1CC(=O)O` [1-carboxymethyl-3-hydroxy-2-methylpyrid-4-one], the figure is less than -2.7; as for `CCOC(=O)Cn1cccc(O)c1=O` [1-ethoxycarbonylmethyl-3-hydroxypyrid-2-one], -0.301.
`CCn1cc(O)c(=O)cc1CO` [1-ethyl-3-hydroxy-6-hydroxymethylpyrid-4-one] had a logD at 100 µM of -1.22.
`Cc1c(O)c(=O)ccn1CCCCCO` [3-hydroxy-1-(5'-hydroxypentyl)-2-methylpyrid-4-one]: the pH-dependent lipophilicity (logD) at 100 µM was -0.553.
In turn, `COC(=O)Cn1cccc(O)c1=O` [3-hydroxy-1-methoxycarbonylmethylpyrid-2-one] gave a logD at 100 µM of -0.699.

In another data set the test system is haemoglobin. Nature of the data set: Ability of complexes to bind to haemoglobin (elution profile of 59Fe label on PD-10 column). It is filed as binding. The conditions noted are these: 59Fe-labelled 3:1 neutral complex, 1 mM. The procedure: The ability of the complexes of 1-acetyl-3-hydroxypyrid-2-one and 1-ethyl-3-hydroxy-6-hydroxymethylpyrid-4-one to bind to haemoglobin is investigated by studying the elution profile of a ^59 Fe label when a mixture of haemoglobin and the ^59 Fe-labelled 3:1 (pyridone:iron) neutral complex (at 1 mM concentration) is applied to a PD-10 column (Sephadex […] gel permeation column - Pharmacia).
For the compound `CC(=O)n1cccc([O-])c1=O.CC(=O)n1cccc([O-])c1=O.CC(=O)n1cccc([O-])c1=O.[Fe+3]` [Fe^III complex of 1-acetyl-3-hydroxypyrid-2-one], the haemoglobin binding ability entry is “no detectable haemoglobin binding ability”.
For `CCn1cc([O-])c(=O)cc1CO.CCn1cc([O-])c(=O)cc1CO.CCn1cc([O-])c(=O)cc1CO.[Fe+3]` [Fe^III complex of 1-ethyl-3-hydroxy-6-hydroxymethylpyrid-4-one], the haemoglobin binding ability result is given as “no detectable haemoglobin binding ability”.

Test system in the next data set: not listed separately
Nature of the data set: Partition coefficient between n-octanol and aqueous tris hydrochloride (20 mM, pH 7.4) at 20° C. The conditions noted are these: free compound, 10^-4 M; n-octanol/tris hydrochloride 20 mM pH 7.4, 20° C.
Experimental: as §1
For the compound `CCCCNC(=O)Cn1cccc(O)c1=O` [1-(N-butylcarbamoylmethyl)-3-hydroxypyrid-2-one], the “Partition coefficient KOUT, free compound” value worked out at 1.89.
Still for that read-out and setting: as for `CCNC(=O)Cn1cccc(O)c1=O` [1-(N-ethylcarbamoylmethyl)-3-hydroxypyrid-2-one], the figure is 0.12; as for `CNC(=O)Cn1cccc(O)c1=O` [3-hydroxy-1-(N-methylcarbamoylmethyl)pyrid-2-one], 0.06.
The same measure, in the same setting: as for `CCCNC(=O)Cn1cccc(O)c1=O` [3-hydroxy-1-(N-propylcarbamoylmethyl)-pyrid-2-one], the figure is 0.35; as for `CC(C)NC(=O)Cn1cccc(O)c1=O` [3-hydroxy-1-[N-(2'-methylethyl)-carbamoylmethyl]-pyrid-2-one], 0.34.

Still in this data set, the particulars now being: n-octanol partition, in words.
Take `Cc1c([O-])c(=O)ccn1CCN.Cc1c([O-])c(=O)ccn1CCN.Cc1c([O-])c(=O)ccn1CCN.[Fe+3]` [Fe^III complex of 1-(2'-aminoethyl)-3-hydroxy-2-methylpyrid-4-one]: the “Kpart values (in words)” value is “low Kpart values”.
On the same count and under the same terms, as for “Fe^III complex of 1-carboxymethyl-3-hydroxy-2-methylpyrid-4-one”, the entry is “low Kpart values”.

The same data set, now with this note: n-octanol/tris buffer, pH 7.4.
On to `Cc1c(O)c(=O)ccn1CCO` [3-hydroxy-1-(2'-hydroxyethyl)-2-methylpyrid-4-one], for which the pH-dependent lipophilicity (logD) at 100 µM was less than -2.7.
As for `Cc1c(O)c(=O)ccn1CCCCO` [3-hydroxy-1-(4'-hydroxybutyl)-2-methylpyrid-4-one], the pH-dependent lipophilicity (logD) at 100 µM was -0.854.
